In one test the target is NDM-1 (Klebsiella pneumoniae, UniProt C7C422). Nature of the test: biochemical. The test is classed as biochemical. As to conditions: fluorescence assay with CCF2-FA substrate; read-out: NDM-1 IC50.
For test [1], the system named is Serratia marcescens expressing IMP-1 (CL5741). Nature of the test: Antibiotic potentiation activity: synergistic concentration (MITC95) with imipenem, OD600 growth. The test is classed as cell-based. As to conditions: concentration giving 95% inhibition of bacterial growth. The method in brief:
(§1)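 Clinical MBL-producing strains (E. coli NDM-1, S. marcescens IMP-1, K. pneumoniae VIM-1) from overnight plates were diluted 1:100 into 1.1×CAMHB. Compound was tested with imipenem at 4 μg/ml (optionally 1 μg/ml) or without it. After 22–24 h at 35 °C, growth was read as OD600.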

Test [2] relates to Klebsiella pneumoniae expressing VIM-1 (IHMA599644). Described as above. As to conditions: concentration giving 95% inhibition of bacterial growth. The test is classed as cell-based. Put shortly:
as §1

Test [3] deals with Escherichia coli expressing NDM-1 (CLB30005). Described as above. The test is classed as cell-based. As to conditions: concentration giving 95% inhibition of bacterial growth. The method in brief:
as §1

In a further test the target is VIM-1 (Pseudomonas aeruginosa (strain ATCC 15692 / DSM 22644 / CIP 104116 / JCM 14847 / LMG 12228 / 1C / PRS 101 / PAO1), UniProt A0A0F7KYQ8). Nature of the test: Enzyme activity: determination of IC50, fluorescence assay with CCF2-FA substrate (VIM-1). The test is classed as biochemical.
The next test deals with IMP-1 (Serratia marcescens, UniProt P52699). Nature of the test: biochemical. The test is classed as biochemical. To be noted: fluorescence assay with CCF2-FA substrate; read-out: IMP-1 IC50.
Sequence of IMP-1 (P52699 whole entry, looked up): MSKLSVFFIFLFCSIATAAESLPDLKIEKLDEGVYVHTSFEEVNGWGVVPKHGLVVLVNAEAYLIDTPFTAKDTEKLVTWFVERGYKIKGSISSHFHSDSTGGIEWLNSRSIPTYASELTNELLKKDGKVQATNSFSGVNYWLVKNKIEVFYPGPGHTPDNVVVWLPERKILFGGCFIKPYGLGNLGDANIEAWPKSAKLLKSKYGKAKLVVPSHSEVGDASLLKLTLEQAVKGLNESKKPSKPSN
Setting [4] is: fluorescence assay with CCF2-FA substrate, read-out: VIM-1 IC50.

Each structure is given as a SMILES string. Like-named read-outs stand apart in the source and are kept apart here.

Sequence of NDM-1 (C7C422 whole entry, looked up, species assumed): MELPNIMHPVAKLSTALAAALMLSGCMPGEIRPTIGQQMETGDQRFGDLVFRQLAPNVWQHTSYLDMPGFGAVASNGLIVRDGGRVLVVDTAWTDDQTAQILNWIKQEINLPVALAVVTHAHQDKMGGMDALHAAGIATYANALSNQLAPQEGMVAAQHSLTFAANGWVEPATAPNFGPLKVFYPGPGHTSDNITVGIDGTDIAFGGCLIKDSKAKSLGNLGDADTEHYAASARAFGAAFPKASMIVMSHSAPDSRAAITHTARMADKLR

What is called IC50 is the concentration at which inhibition is half-maximal. As to `NS(=O)(=O)c1cccc(-c2cnn(Cc3ccccn3)c2)c1-c1nn[nH]n1` [Example 101, 3-[1-(pyridin-2-ylmethyl)-1H-pyrazol-4-yl]-2-(2H-tetrazol-5-yl)benzenesulfonamide], the IC50 at NDM-1 amounted to 0.0409 µM; at VIM-1 (setting [4]), 0.111 µM; on IMP-1 it was 0.517 µM. The “Serratia marcescens expressing IMP-1 (CL5741) MITC95” value in test [1] is 14.06 µM. Moreover, in test [2], the “Klebsiella pneumoniae expressing VIM-1 (IHMA 599644) MITC95” value turned out to be 125 µM. Moreover, the “Escherichia coli expressing NDM-1 (CLB 30005) MITC95” value in test [3] was found to be 3.906 µM.

For the compound `Cc1nccn1-c1nc(-c2cccc(S(N)(=O)=O)c2-c2nn[nH]n2)cs1` [Example 102, 3-[2-(2-methyl-1H-imidazol-1-yl)-1,3-thiazol-4-yl]-2-(2H-tetrazol-5-yl)benzenesulfonamide], the half-inhibitory concentration (IC50) on NDM-1 was 0.128 µM; on VIM-1 (setting [4]), 0.524 µM; at IMP-1 it was 0.174 µM. In addition, in test [1], the “Serratia marcescens expressing IMP-1 (CL5741) MITC95” value was determined as 53.13 µM. Besides, the “Klebsiella pneumoniae expressing VIM-1 (IHMA 599644) MITC95” value in test [2] was above 200 µM. Also, in test [3], the “Escherichia coli expressing NDM-1 (CLB 30005) MITC95” value came to 9.375 µM.

Regarding `NS(=O)(=O)c1cccc(-c2c[nH]c3nccnc23)c1-c1nn[nH]n1` [Example 104, 3-(5H-pyrrolo[2,3-b]pyrazin-7-yl)-2-(2H-tetrazol-5-yl)benzenesulfonamide], the IC50 was 0.0168 µM at NDM-1, 0.107 µM at VIM-1 (setting [4]) and 0.287 µM at IMP-1. In addition, the “Serratia marcescens expressing IMP-1 (CL5741) MITC95” value in test [1] worked out at 15.63 µM. Besides, the “Klebsiella pneumoniae expressing VIM-1 (IHMA 599644) MITC95” value in test [2] is 25 µM. Besides, in test [3], the “Escherichia coli expressing NDM-1 (CLB 30005) MITC95” value worked out at 0.9766 µM.

For `NS(=O)(=O)c1cccc(-c2cnn3ncccc23)c1-c1nn[nH]n1` [Example 105, 3-pyrazolo[1,5-b]pyridazin-3-yl-2-(2H-tetrazol-5-yl)benzenesulfonamide], the IC50 at NDM-1 worked out at 0.0143 µM; at VIM-1 (setting [4]), 0.0704 µM; at IMP-1 it was 0.374 µM. Further, the “Serratia marcescens expressing IMP-1 (CL5741) MITC95” value in test [1] was 31.25 µM. The “Klebsiella pneumoniae expressing VIM-1 (IHMA 599644) MITC95” value in test [2] came out at 18.75 µM. Further, the “Escherichia coli expressing NDM-1 (CLB 30005) MITC95” value in test [3] was found to be 0.9766 µM.

For the compound `CC(C)n1nccc1-c1cccc(S(N)(=O)=O)c1-c1nn[nH]n1` [Example 106, 3-[1-(1-methylethyl)-1H-pyrazol-5-yl]-2-(2H-tetrazol-5-yl)benzenesulfonamide], the results for the IC50 at NDM-1, at VIM-1 (setting [4]) and at IMP-1 were 0.00963 µM, 0.962 µM and 1.8 µM, respectively. In addition, the “Serratia marcescens expressing IMP-1 (CL5741) MITC95” value in test [1] came to 62.5 µM. For the same compound, in test [2], the “Klebsiella pneumoniae expressing VIM-1 (IHMA 599644) MITC95” value was found to be 200 µM. Besides, the “Escherichia coli expressing NDM-1 (CLB 30005) MITC95” value in test [3] was found to be 3.906 µM.

With `NS(=O)(=O)c1cccc(-c2cnn3c2CCCC3)c1-c1nn[nH]n1` [Example 107, 3-(4,5,6,7-tetrahydropyrazolo[1,5-a]pyridin-3-yl)-2-(2H-tetrazol-5-yl)benzenesulfonamide], the IC50 at NDM-1 is 0.01 µM; on VIM-1 (setting [4]), 0.194 µM; on IMP-1, 0.365 µM. Further, the “Serratia marcescens expressing IMP-1 (CL5741) MITC95” value in test [1] came out at 15.63 µM. Also, the “Klebsiella pneumoniae expressing VIM-1 (IHMA 599644) MITC95” value in test [2] stood at 200 µM. In addition, the “Escherichia coli expressing NDM-1 (CLB 30005) MITC95” value in test [3] was determined as 3.906 µM.

As to `Cc1sccc1-c1cccc(S(N)(=O)=O)c1-c1nn[nH]n1` [Example 108, 3-(2-methylthiophen-3-yl)-2-(2H-tetrazol-5-yl)benzenesulfonamide], the IC50 is 0.0058 µM at NDM-1; 0.045 µM against VIM-1 (VIM-1 IC50, fluorescence assay with CCF2-FA substrate); 0.255 µM at IMP-1. For the same compound, the “Serratia marcescens expressing IMP-1 (CL5741) MITC95” value in test [1] is 18.75 µM. In addition, in test [2], the “Klebsiella pneumoniae expressing VIM-1 (IHMA 599644) MITC95” value was determined as 37.5 µM. Also, the “Escherichia coli expressing NDM-1 (CLB 30005) MITC95” value in test [3] worked out at 1.172 µM.

For the origin of these results see patent US9708336B2, “Metallo-beta-lactamase inhibitors” (priority 2014, dated 2017).
